Laboratory results as given in patent US9695176B2, “Substituted imidazo[1,5-a]pyrazines as CGRP receptor antagonists” (BRISTOL-MYERS SQUIBB COMPANY, priority 2012, dated 2017).

Target: Human CGRP Receptor (Homo sapiens (Human), UniProt O60894+Q16602)
Assay: Radioligand binding assay, [125I]-CGRP displacement on SK-N-MC membranes
Description: Tissue Culture. SK-N-MC cells were grown at 37° C. in 5% CO2 as a monolayer in medium consisting of MEM with Earle's salts and L-glutamine (Invitrogen) supplemented with 10% fetal bovine serum (Invitrogen).
Membrane Preparation. Crude membranes were prepared from SK-N-MC cells expressing CGRP receptors. […] The cells were transferred from plates to polypropylene tubes (16×100 mm) and homogenized using a polytron. Homogenates were centrifuged at 32,000×g for 30 min. The pellets were resuspended in cold hypotonic lysis buffer with 0.1% mammalian protease inhibitor cocktail (Sigma) and assayed for protein concentration. The SK-N-MC homogenate was aliquoted and stored at −80° C.
Radioligand Binding Assay. The compounds of invention were solubilized and carried through serial dilutions using 100% DMSO. Aliquots from the compound serial dilutions were further diluted 25 fold into assay buffer (50 mM Tris-Cl pH 7.5, 5 mM MgCl2, 0.005% Triton X-100) and transferred (volume 50 μl) into 96 well assay plates. […] SK-N-MC membranes were thawed, diluted in assay buffer with fresh 0.1% mammalian protease inhibitor cocktail (Sigma), and re-homogenized. SK-N-MC homogenate (7 μg/well) was added in a volume of 100 μl. The assay plates were then incubated at room temperature for 2 h. Assays were stopped by addition of excess cold wash buffer (50 mM Tris-Cl pH 7.5, 0.1% BSA) immediately followed by filtration over glass fiber filters (Whatman GF/B) previously soaked in 0.5% PEI. Non-specific binding was defined with 1 μM beta-CGRP (Bachem). Protein bound radioactivity was determined using a gamma or scintillation counter. […] All compounds of invention were evaluated in at least two separate experiments.

Chain of Human CGRP Receptor (Q16602 23-461): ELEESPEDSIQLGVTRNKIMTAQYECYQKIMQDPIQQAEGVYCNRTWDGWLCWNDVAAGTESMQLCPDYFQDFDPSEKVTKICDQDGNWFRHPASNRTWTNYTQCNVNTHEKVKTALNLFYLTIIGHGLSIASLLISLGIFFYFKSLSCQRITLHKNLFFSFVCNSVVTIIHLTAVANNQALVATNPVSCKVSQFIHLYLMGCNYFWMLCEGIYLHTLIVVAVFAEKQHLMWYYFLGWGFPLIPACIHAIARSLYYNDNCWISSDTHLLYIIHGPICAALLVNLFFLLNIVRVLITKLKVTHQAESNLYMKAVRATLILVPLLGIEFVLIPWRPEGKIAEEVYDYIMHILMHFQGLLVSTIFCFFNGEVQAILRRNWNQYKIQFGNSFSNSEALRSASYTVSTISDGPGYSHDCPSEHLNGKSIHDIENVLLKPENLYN
Chain of Human CGRP Receptor (O60894 27-148): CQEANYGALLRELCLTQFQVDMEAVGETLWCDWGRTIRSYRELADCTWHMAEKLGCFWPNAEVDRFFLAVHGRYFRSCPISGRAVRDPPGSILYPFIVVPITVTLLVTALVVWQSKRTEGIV

Structure (SMILES)	IC50 [nM]
Cc1cc(CC(OC(=O)N2CCC(c3cc4ccccc4[nH]c3=O)CC2)c2ncc3n2CCN(C2CCCCC2)C3)cc2cn[nH]c12 (racemic) [Example 4, (±)-1-(7-Cyclohexyl-5,6,7,8-tetrahydroimidazo[1,5-a]pyrazin-3-yl)-2-(7-methyl-1H-indazol-5-yl)ethyl 4-(2-oxo-1,2-dihydroquinolin-3-yl)piperidine-1-carboxylate]	0.22
Cc1cc(CC(OC(=O)N2CCC(c3cc4ccccc4[nH]c3=O)CC2)c2ncc3n2CCNC3)cc2cn[nH]c12 (racemic) [Example 3, (±)-2-(7-methyl-1H-indazol-5-yl)-1-(5,6,7,8-tetrahydroimidazo[1,5-a]pyrazin-3-yl)ethyl 4-(2-oxo-1,2-dihydroquinolin-3-yl)piperidine-1-carboxylate]	2.95
Cc1cc(CC(OC(=O)N2CCC(c3cc4ccccc4[nH]c3=O)CC2)c2ncc3n2CCN(Cc2ccccc2)C3)cc2cn[nH]c12 (racemic) [Example 1, (±)-1-(7-Benzyl-5,6,7,8-tetrahydroimidazo[1,5-c]pyrazin-3-yl)-2-(7-methyl-1H-indazol-5-yl)ethyl 4-(2-oxo-1,2-dihydroquinolin-3-yl)piperidine-1-carboxylate]	0.26
CCN1CCn2c(cnc2C(Cc2cc(C)c3[nH]ncc3c2)OC(=O)N2CCC(c3cc4ccccc4[nH]c3=O)CC2)C1 (racemic) [Example 2, (±)-1-(7-ethyl-5,6,7,8-tetrahydroimidazo[1,5-a]pyrazin-3-yl)-2-(7-methyl-1H-indazol-5-yl)ethyl 4-(2-oxo-1,2-dihydroquinolin-3-yl)piperidine-1-carboxylate]	1.7
